Patent US7511119B2, “PRAME peptide analogues” (MannKind Corporation, priority 2005, dated 2009)
Where two headings read alike, the source gives them in different places. Square brackets hold non-standard residues; d marks the D form. Ends that are not written are not given here. Peptide text beside a SMILES is read from it. Bta = N[C@@H](Cc1csc2ccccc12)C(=O)O; Phg = N[C@H](C(=O)O)c1ccccc1; Nle = CCCC[C@H](N)C(=O)O; Orn = NCCC[C@H](N)C(=O)O; Nva = CCC[C@H](N)C(=O)O

Legend:
[1] = molecular target: HLA-A*0201 (Homo sapiens, UniProt P04439, D140Y/D185E/D98H/E176V/E277Q/G131W/G231S/I119V/I121R/I166T/I218V/L300P/L318F/N151K/N90K/P208A/P217A/Q86G/Q94H/R138H/R169H/T345S); assay: Peptide binding using T2 cells; details: half maximal binding of wild-type peptide relative to analog;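 further: Read-out is peptide-induced stabilization of HLA-A*0201 on the cell surface, reflecting mainly Kon at limiting peptide levels and both Kon and Koff at saturating levels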
Description: Thus, at limiting concentrations of peptide, it is a measurement of Kon mostly and at saturation levels of peptide it is a measurement of both Kon and Koff.
Thus, at limiting concentrations of peptide, this is a measurement of Kon mostly and at saturation levels of peptide that is a measurement of both Kon and Koff.

[2] = tested on: T cell lines against natural epitope SSX-241-49; assay: Cross-reactivity and functional avidity: IFN-gamma production by T cell lines raised against natural SSX-2 41-49; assay type: cell-based, HHD transgenic mice; details: T cells raised to native peptide tested on analogs; footnote * and unit not given;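 further: analogs presented ex vivo by competent APCs to T cells specific for the non-mutated epitope, scored by lowest activating concentration, peak cytokine effect and concentration at that peak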
[3] = molecular target: T1, HLA-A*0201 on T2 cells (human); assay: T2 cells, wild-type/analog half-maximal binding
T1 construct: whole, on cells; Class I MHC on the surface of T2 cells, detected with a fluorescent anti-A2 antibody; beta2-microglobulin is not mentioned for this assay; also called MHC class I (A2 allele)

[4] = molecular target: T2, HLA-A*0201 class I monomer of the iTopia Epitope Discovery System; assay: iTopia affinity assay
T2 construct: also called A0201 restricted MHC Class 1 molecules; MHC monomer

[5] = molecular target: T1, HLA-A*0201 on T2 cells; assay: T2 cells, wild-type/analog half-maximal binding; remark: listed apart in the source

Relative affinity (1/RA) [1]	Relative affinity (1/RA) [3]	Molecule	Cross-reactivity and fct avidity (native to analogs)* [2]	further results
0.4	–	FVSQKIFYV [SSX2 41-49 (K41F, A42V, E44Q)]	10	–
1.1	–	CCCC[C@H](NC(=O)[C@H](CO)NC(=O)[C@@H](NC(=O)[C@@H](N)Cc1ccccc1)C(C)C)C(=O)N[C@@H](CCCCN)C(=O)N[C@H](C(=O)N[C@@H](Cc1ccccc1)C(=O)N[C@@H](Cc1ccc(O)cc1)C(=O)N[C@H](C(=O)O)C(C)C)[C@@H](C)CC [SSX2 41-49 (K41F, A42V, E44Nle), FVS(Nle)KIFYV] (H-FVS[Nle]KIFYV-OH)	10	–
0.6	–	CC[C@H](C)[C@H](NC(=O)[C@H](CCCCN)NC(=O)[C@H](CCC(=O)O)NC(=O)[C@H](CO)NC(=O)[C@H](C)NC(=O)[C@@H](N)Cc1csc2ccccc12)C(=O)N[C@@H](Cc1ccccc1)C(=O)N[C@@H](Cc1ccc(O)cc1)C(=O)N[C@H](C(=O)O)C(C)C [SSX2 41-49 (K41(b-(3-benzothienyl)Ala))] (H-[Bta]ASEKIFYV-OH)	10	–
1.1	–	CCCC[C@H](NC(=O)[C@H](CCCCN)NC(=O)[C@H](CCC(=O)O)NC(=O)[C@H](CO)NC(=O)[C@@H](NC(=O)[C@@H](N)Cc1ccccc1)C(C)C)C(=O)N[C@@H](Cc1ccccc1)C(=O)N[C@@H](Cc1ccc(O)cc1)C(=O)N[C@H](C(=O)O)C(C)C [SSX2 41-49 (K41F, A42V, I46Nle), FVSEK(Nle)FYV] (H-FVSEK[Nle]FYV-OH)	10	–
2.6	–	KLSEKIFYI [SSX2 41-49 (A42L, V49I)]	0.03	–
1.0	–	CC[C@H](C)[C@H](NC(=O)[C@H](CCCCN)NC(=O)[C@H](CCC(=O)O)NC(=O)[C@H](CO)NC(=O)[C@@H](NC(=O)[C@@H](N)Cc1ccc(O)cc1)C(C)C)C(=O)N[C@@H](Cc1ccccc1)C(=O)N[C@@H](Cc1ccc(O)cc1)C(=O)N[C@H](C(=O)O)C(C)C [SSX2 41-49 (K41Y, A42V)]	0.1	–
1.7	–	KMSEKIFYV [SSX2 41-49 (A42M)]	0.1	–
0.8	–	CC[C@H](C)[C@H](NC(=O)[C@H](CCCCN)NC(=O)[C@H](CCC(=O)O)NC(=O)[C@H](CO)NC(=O)[C@H](C)NC(=O)[C@@H](N)Cc1ccc(OC)cc1)C(=O)N[C@@H](Cc1ccccc1)C(=O)N[C@@H](Cc1ccc(O)cc1)C(=O)N[C@H](C(=O)O)C(C)C [SSX2 41-49 (K41(O-methyl Tyr))] (H-Y(Me)ASEKIFYV-OH)	3	–
2.4	–	FVSEKLFSA	>10	–
1.7	–	KISEKIFYV [SSX2 41-49 (A42I)]	3	–
2.9	–	WMSEKIFYV-OH [SSX2 41-49 (K41W, A42M)]	1	–
3.8	–	FVSEKIFTV-OH [SSX2 41-49 (K41F, A42V, Y48T)]	>10	–
3.9	–	FVSEKIFSV [SSX2 41-49 (K41F, A42V, Y48S)]	>10	–
0.6	–	YMSEKIFYV-OH [SSX2 41-49 (K41Y, A42M)]	3	–
–	1.1 1/RA	FVS[Nle]KIFYV (also called FVS(Nle)KIFYV) [SSX2 41-49 (K41F, A42V, E44Nle)]	–	–
–	1.1 1/RA	FVSEK[Nle]FYV (also called FVSEK(Nle)FYV) [SSX2 41-49 (K41F, A42V, I46Nle)]	–	–
–	–	S[Nva]LQHLIGL [PRAME425-433 analog with Nva at P2]	–	fold reduction of affinity (ED50) against the native peptide [4]: ≤ 3 fold
–	–	SILQHLIGL [PRAME425-433 analog with Ile at P2]	–	fold reduction of affinity (ED50) against the native peptide [4]: ≤ 3 fold
–	–	YLLQHLIGL [PRAME425-433 analog with Tyr at P1]	–	fold difference of affinity (ED50) against the native peptide [4]: ≤ 3 fold
–	–	FLLQHLIGL (also called Phe P1 analog; S425F) [PRAME425-433 analog with Phe at P1]	–	fold difference of affinity (ED50) against the native peptide [4]: ≤ 3 fold
–	–	TLLQHLIGL [PRAME425-433 analog with Thr at P1]	–	fold difference of affinity (ED50) against the native peptide [4]: ≤ 3 fold

Relative affinity (1/RA) [1]	Relative affinity (1/RA) [3]	Molecule	Cross-reactivity and fct avidity (native to analogs)* [2]	further results
–	–	FVSEKIFYV [SSX2 41-49 (K41F, A42V)]	–	Relative affinity (1/RA) [5]: 3.1 1/RA
–	3.8 1/RA	FVSEKIFTV [SSX2 41-49 (K41F, A42V, Y48T)]	–	–
–	3.9 1/RA	FVSEKIFSV [SSX2 41-49 (K41F, A42V, Y48S)]	–	–
–	2.6 1/RA	FVSEKLFTV [SSX2 41-49 (K41F, A42V, I46L, Y48T)]	–	–
–	1.7 1/RA	FVSEKIFFV [SSX2 41-49 (K41F, A42V, Y48F)]	–	–
–	1.1 1/RA	FVSDKIFYV [SSX2 41-49 (K41F, A42V, E44D)]	–	–
–	1.9 1/RA	FVSEKLFYV [SSX2 41-49 (K41F, A42V, I46L)]	–	–
–	–	WLSEKIFYV [SSX2 41-49 (K41W, A42L)]	–	Relative affinity (1/RA) [5]: 3.3 1/RA
–	2.4 1/RA	FVSEKLFSA [SSX2 41-49 (K41F, A42V, I46L, Y48S, V49A)]	–	–
–	–	FISEKIFYV [SSX2 41-49 (K41F, A42I)]	–	Relative affinity (1/RA) [5]: 2.7 1/RA
–	0.4 1/RA	FVSQKIFYV [SSX2 41-49 (K41F, A42V, E44Q)]	–	–
–	–	WMSEKIFYV [SSX2 41-49 (K41W, A42M)]	–	Relative affinity (1/RA) [5]: 2.9 1/RA
–	3.9 1/RA	FVS[Nva]KIFYV (also called FVS(Nva)KIFYV) [SSX2 41-49 (K41F, A42V, E44Nva)]	–	–
–	–	FLLQHLIG[Nle] (the second is probably S425T L433Nle) [PRAME425-433 S425F L433Nle analog]	–	fold reduction of ED50 against the native peptide [4]: > 4 fold
–	–	TMLQHLIG[Nle] [PRAME425-433 S425T L426M L433Nle analog]	–	binding result [4]: binds
–	–	FMLQHLIG[Nle] [PRAME425-433 analog with Phe at P1, Met at P2 and Nle at PΩ]	–	binding result [4]: binds
–	–	[Orn]LLQHLIGL [PRAME425-433 analog with Orn at P1]	–	fold difference of affinity (ED50) against the native peptide [4]: ≤ 3 fold
–	–	XLLQHLIGL (P1 = Hse (homoserine)) [PRAME425-433 analog with Hse at P1]	–	fold difference of affinity (ED50) against the native peptide [4]: ≤ 3 fold
–	2.5 1/RA	FVSEKIF[Phg]V (also called FVSEKIF(Phg)V) [SSX2 41-49 (K41F, A42V, Y48Phg)]	–	–
–	2.4 1/RA	FVSEK[Nva]FYV (also called FVSEK(Nva)FYV) [SSX2 41-49 (K41F, A42V, I46Nva)]	–	–
–	1.4 1/RA	FVSEKIFXV (P8 = Phe(4-F), 4-fluorophenylalanine, also called FVSEKIF(Phe-4F)V) [SSX2 41-49 (K41F, A42V, Y48(Phe-4F))]	–	–
